The text below walks through data of patent publication US20230355674A1, “DONOR T-CELLS WITH KILL SWITCH” (CSL Behring LLC, priority 2020, published 2023).

In data set [1] the test system is primary human T cells. Description: 6-TG resistance of gRNA modified primary human T cells (viability). Type of data set: cell-based. Conditions: donors #9 and #10, 1 uM 6-TG, day 8 and day 13, vs unmodified. The source says:
FIG. 44 illustrates a method of modifying primary T-cells in accordance with one embodiment of the present disclosure. FIGS. 45A-45C illustrate 6-TG dose responses seven days following the modification of the primary T-cells in accordance with the modification methods described herein. In particular, FIGS. 45A and 45B illustrate the targeting of Exon 3 (guide RNA 13) and Exon 8 (guide RNA 21). The references “#9” and “#10” denote T-cell number and UT control (electroporated without RNP). FIG. 45C illustrates unmodified cells from donor #9 and donor #10 tested with increasing concentrations of 6-TG (day 4). It was observed that the […] primary T-cells were very sensitive to low doses of 6-TG. ICE Scores are shown below.
(§1) Peripheral blood mononuclear cells (PBMC) were isolated from Australian Red Cross Blood donor samples (n=2) via density centrifugation. […] By day 7, the original mixed PBMC population was determined to be primarily CD3+ T cells (flow cytometry; data not shown).
The cells were then cultured for about 7 and about 12 days in the presence of 1 uM 6-TG, with 6-TG replenished every about 2 to about 3 days. At each of these time points, the cells were assessed for the proportion of viable cells compared to untreated (UT) controls.

Data set [2] has as its system HPRT1 gene. Description: ICE scoring (indel, knockout score) of gRNA editing in primary T cells. Type of data set: cell-based. Conditions: primary human T cells.
From the text: (§2) Indel Percentage—The editing efficiency (percentage of the pool with non-wild type sequence) as determined by comparing the edited trace to the control trace. In the ICE algorithm, potential editing outcomes are proposed and fitted to the observed data using linear regression.
(§3) Knockout Score—Represents the proportion of cells that have either a frameshift or 21+bp indel. This score is a useful measure for those who are interested in understanding how many of the contributing indels are likely to result in a functional Knockout (KO) of the targeted gene.
FIG. 44 illustrates a method of modifying primary T-cells in accordance with one embodiment of the present disclosure. FIGS. 45A-45C illustrate 6-TG dose responses seven days following the modification of the primary T-cells in accordance with the modification methods described herein. In particular, FIGS. 45A and 45B illustrate the targeting of Exon 3 (guide RNA 13) and Exon 8 (guide RNA 21). The references “#9” and “#10” denote T-cell number and UT control (electroporated without RNP). […]
as §1

In data set [3] the test system is HPRT protein. Description: Western blot of HPRT protein in gRNA modified CEM cells. The class given is cell-based, human. How it is done: (§4) CEM T cell leukemia cells were electroporated (1600V, 10 ms pulse width, 3 pulses by using the Neon Transfection system) with ribonucleoprotein (RNP) complexes containing guide RNA (see Example 21) designed in-house and obtained from Integrated DNA Technologies (IDT), together with Cas9 and tracrRNA. Cells confirmed to be transfected with the gRNA via the use of the tracr RNA (24 hours post electroporation) were purified using fluorescence activated cells sorting (FACS) prior to culture for a further 72 hours, followed by assessment of cell survival when challenged with increasing concentrations of 6-thioguanine (6-TG) compared to wild type (unmodified) CEM cells.
Unmodified and modified CEM cells were also used for isolation of protein and detection of the HPRT protein using Western blot (FIG. 39, top panel). […] Actin protein detection (FIG. 39, bottom panel) was used as a protein loading control.
CEM T cell leukemia cells were electroporated (1600V, 10 ms pulse width, 3 pulses by using the Neon Transfection system) with ribonucleoprotein (RNP) complexes containing guide RNA (gRNA; legend) designed in-house and obtained from Integrated DNA Technologies (IDT), together with Cas9 and tracrRNA. Cells confirmed to be transfected with the gRNA via the use of the tracr RNA (24 hours post electroporation) were purified using fluorescence activated cells sorting (FACS) prior to culture for 10 days in the presence of 10 uM 6-TG, replenished with fresh 6-TG every 48-72 hours.
Following the selection period, protein was extracted from each cell and used for western blot-based detection of the HPRT protein. Detection of beta-actin was used as a protein loading control (Actin Antibody (ACTBD11B7): sc-81178. Santa Cruz).
For orientation: A western blot detects proteins with antibodies after separation by electrophoresis.

In data set [4] the test system is primary human T cells. Description: MTX dose response in 6-TG selected primary human T cells. Type of data set: cell-based. Conditions: primary human T cells after 12 days 1 μM 6-TG, MTX dose range 2 days, thymidine 16 μM. How it is done: Primary human T cells modified using guide RNAs targeting the HPRT1 gene and subsequently placed under selection pressure for 12 days with 1 μM 6-TG, with 6-TG replenished every 2 to 3 days, were subjected to a dose range of MTX in the presence of thymidine 16 μM for 2 days and assessed for cell viability.

Another data set has as its system CEM cells. Description: Negative selection with MTX or MPA, transduced or transfected CEM cells. Conditions: 1 μM or 10 μM of MPA, day 0 to day 14. The class given is cell-based. How it is done:
Transduced or transfected CEM cells (such as those from Example 1) were cultured with or without MTX from day 0 to day 14. The medium was refreshed every 3 to 4 days. GFP was analyzed on flow machine and InDel % was analyzed by T7E1 assay.

Data set [5] deals with CEM T cell leukemia cells. Description: 6-TG selection and 6-TG challenge of gRNA modified CEM cells (cell viability). Conditions: CEM, 10 μM 6-TG for 1 week, vs wild-type. The class given is cell-based. The protocol:
(§5) Cells confirmed to be transfected with the gRNA via the use of the tracr RNA (24 hours post electroporation) were purified using fluorescence activated cells sorting (FACS) prior to culture in 10 μM 6-TG for 1 week replenished with fresh 6-TG every 48-72 hours.
(§6) After 10 days in the presence of 10 uM 6-TG, replenished with fresh 6-TG every 48-72 hours, each cell line was challenged with increasing concentrations of 6-thioguanine (6-TG) and cell viability was compared to wild type (unmodified) CEM cells (see FIG. 40B).

For data set [6], the system named is HPRT1 gene. Description: ICE scoring (indel, knockout score) of gRNA editing in CEM cells. The class given is cell-based, human.
From the text: The top candidate guide RNAs from Example 21 were screen in Jurkat cell lines (n=1) and validated in CEM cell lines (n=2). For instance, Jurkat cells were electroporated with a ribonucleoprotein (RNP) complex containing guide RNA (e.g. an RNP including a guide RNA having any one of SEQ ID NOS: 40-49) together with the Cas9 and tracrRNA. The methodology and analysis was the same for both Jurkat cell lines and CEM cell lines (see also, FIG. 37). Following electroporation, cell viability was measured at different concentrations of 6-TG (see FIG. 36).
as §2, §3, §4

Data set [7] is described as follows: 6-TG selection and 6-TG challenge of gRNA modified CEM cells (cell viability). Type of data set: cell-based. Conditions: human, wild type (unmodified) CEM T cell leukemia cells; wild type CEM, 6-TG at 40 uM. How it is done: as §5, §6
The subject of data set [8] is Jurkat cells. Description: HPRT knockout Jurkat cells, MTX dose response. The class given is cell-based. Conditions: MTX 0.00625 and 0.0125 μM, cultured for 5 days. How it is done: Jurkat cells (unmodified; WT) were cultured with increasing concentrations of methotrexate (MTX) to determine the MTX dosage window required to kill WT cells (see FIG. 28). A dose range of between 0.00625 and 0.025 μM MTX was selected for subsequent assessment of HPRT Knockout (IDT-4 modified) Jurkat cells.
Dose response of HPRT Knockout (IDT-4 modified) Jurkat cells to MTX was compared to unmodified Jurkat cells (WT) to determine sensitivity to MTX (see FIG. 29).

Data set [9] relates to HPRT protein. Description: Western blot of HPRT protein in Jurkat cells. The class given is cell-based, human. Conditions: vs unmodified (WT). The protocol: (§7) Jurkat cells were electroporated with a ribonucleoprotein (RNP) complex containing guide RNA (gRNA; GS-4; designated IDT-4) together with the Cas9 and tracrRNA. Cells which were confirmed to be transfected with the gRNA via tracr RNA were purified using fluorescence activated cells sorting (FACS) and subsequently cultured for 72 hours. Increasing concentrations of 6-thioguanine (6-TG) were then administered to the transduced cultured cells to assess resistance. Wild type (unmodified) Jurkat cells were used as a control.
Unmodified (WT) and IDT-4 modified Jurkat cells were also analyzed for HPRT protein using Western blot (see FIG. 25). […] Actin protein detection (bottom panel) was used as a protein loading control.

Data set [10] concerns Jurkat cells. Description: HPRT knockout Jurkat cells, resistance to 6-TG (luminescence, ATP detection). Type of data set: cell-based. Conditions: 6-TG tested up to 10 uM, vs wild type. The protocol: as §7
Luminescence (ATP detection) was used to assess cell viability.

Where [11] appears, read: after 10 days of 6-TG selection (10 uM).

Entries after “also recorded” stand apart in the source; their conditions may differ.

Consider “gRNA 13: sgRNA guide and PAM AGCCCCCCTTGAGCACACAGAGG, HPRT 1 target Exon 3 (listed as DNA, chemistry not given here)”, for which, in the data set on primary human T cells [1], the “proportion of viable cells under 6-TG” value is “increased viability”. Moreover, the “knockout efficiency (ICE scoring)” value in the data set on HPRT1 gene [2] was “about 43%”. The “HPRT protein (Western blot)” value is “undetectable levels of HPRT; also recorded: non-detectable” with HPRT protein [3] (72 hours post-electroporation, no 6-TG selection, listed as guide 13) and “remained undetectable” with HPRT protein [3] (setting [11]). Moreover, the “sensitivity to MTX compared to wild-type non-modified cells (UT)” value in the data set on primary human T cells [4] is “increased sensitivity to MTX”.
Turning to `COc1c(C)c2c(c(O)c1C/C=C(\C)CCC(=O)O)C(=O)OC2` [MPA, Mycophenolic acid], the “HPRT knockout population of CEM cells” value in the data set with CEM cells was “eliminated at a faster pace”. The “GFP population of transduced (HPRT knockdown) cells” value in the data set with CEM cells (CEM cells) is “decreased”.
Regarding “gRNA 19: sgRNA guide and PAM GTGCTTTGATGTAATCCAGCAGG, HPRT 1 target Exon 3 (listed as DNA, chemistry not given here)”, the “cell viability under 6-TG selection” value in data set [5] is listed as “more variable viability”. The “editing (ICE scoring), in words” value with HPRT1 gene [6] is listed as “zero editing”. Further, the “HPRT protein (Western blot)” value in the data set with HPRT protein [3] (72 hours post-electroporation, no 6-TG selection, listed as guide 19) is given as “reduced compared to wildtype; also recorded: detectable levels of HPRT protein”; in the data set with HPRT protein [3] (setting [11]), “limited to no detectable levels of HPRT”.
Turning to `Nc1nc2nc[nH]c2c(=S)[nH]1` [6-TG, 6-thioguanine, reference compound], in data set [7], the viability (in general, a read-out of living cells in per cent, often relative to untreated cells) at 40 µM was ~10%.
Take “gRNA 22: sgRNA guide and PAM GAAGTATTCATTATAGTCAAGGG, HPRT 1 target Exon 8 (listed as DNA, chemistry not given here)”: the “HPRT protein (Western blot)” value in the data set with HPRT protein [3] (72 hours post-electroporation, no 6-TG selection, listed as guide 22) is “undetectable levels of HPRT; also recorded: non-detectable”; in the data set with HPRT protein [3] (setting [11]) it was “remained undetectable”.
As to “gRNA 18: sgRNA guide and PAM TTATGCTGAGGATTTGGAAAGGG, HPRT 1 target Exon 2 (listed as DNA, chemistry not given here)”, the “cell viability under 6-TG selection” value in [5] is recorded as “more variable viability”. For the same molecule, the “editing (ICE scoring), in words” value with HPRT1 gene [6] is recorded as “efficient editing”. Also, the “HPRT protein (Western blot)” value is listed as “reduced compared to wildtype; also recorded: detectable levels of HPRT protein” in the data set on HPRT protein [3] (72 hours post-electroporation, no 6-TG selection, listed as guide 18) and “limited to no detectable levels of HPRT” in the data set with HPRT protein [3] (setting [11]).
Take “gRNA 17: sgRNA guide and PAM GTAGCCCTCTGTGTGCTCAAGGG, HPRT 1 target Exon 3 (listed as DNA, chemistry not given here)”: the “HPRT protein (Western blot)” value with HPRT protein [3] (72 hours post-electroporation, no 6-TG selection, listed as guide 17) is reported as “undetectable levels of HPRT; also recorded: non-detectable”; in the data set on HPRT protein [3] (setting [11]) it was “remained undetectable”.
“IDT-4: lead HPRT knockout guide RNA GGTTATGACCTTGATTTATT (listed as DNA, chemistry not given here)”: the “sensitivity to MTX compared to wild type cells” value in the data set on Jurkat cells [8] is given as “increased sensitivity to MTX”. For the same molecule, in the data set on HPRT protein [9], the “HPRT protein level (Western blot)” value was “undetectable levels of HPRT”. Also, the “cell viability with increasing doses of 6-TG” value in the data set with Jurkat cells [10] is “resistance to increasing doses of 6-TG”.
With “gRNA 12: sgRNA guide and PAM GCCCCCCTTGAGCACACAGAGGG, HPRT 1 target Exon 4 (listed as DNA, chemistry not given here)”, the “HPRT protein (Western blot)” value in the data set with HPRT protein [3] (72 hours post-electroporation, no 6-TG selection, listed as guide 12) is on record as “undetectable levels of HPRT; also recorded: non-detectable”; in the data set on HPRT protein [3] (setting [11]), “remained undetectable”.
Regarding “gRNA 15: sgRNA guide and PAM GATGTGATGAAGGAGATGGGAGG, HPRT 1 target Exon 3 (listed as DNA, chemistry not given here)”, in data set [5], the “cell viability under 6-TG selection” value is recorded as “more variable viability”. Besides, the “editing (ICE scoring), in words” value in the data set with HPRT1 gene [6] is on record as “efficient editing”. The “HPRT protein (Western blot)” value with HPRT protein [3] (setting [11]) is “limited to no detectable levels of HPRT”.
